One may read the Cmax as the peak of the concentration-time curve. The term solubility denotes how much of the substance goes into solution per volume.

Structures are written as SMILES. Values after ≈ are worked out from the molar mass of the structure shown.

Results on 2 molecules are retold here after US7799768B2, “Polymorphs of 3-O-(3′,3′-dimethylsuccinyl)betulinic acid di-N-methyl-D-glucamine” (priority 2005, dated 2010).

Series [1] in a line: relative bioavailability of oral formulations in rats (plasma DSB free acid). The series is classed as in vivo, Sprague Dawley rats. The conditions noted are these: single oral 25 mg/kg; for Cmax: male, po. The method, then: The following study was conducted to compare the relative bioavailability of oral formulations prepared with DSB•2NMG Form I and amorphous DSB•2NMG.
Groups of four male Sprague Dawley rats with surgically implanted jugular cannulas were given a single oral 25 mg/kg dose of DSB•2NMG (Form I or amorphous) in one of six formulations: • Group 1: 10% hydroxypropyl-β-cyclodextrin solution of amorphous DSB•2NMG; • Group 2: 10% hydroxypropyl-β-cyclodextrin solution of DSB•2NMG Form I; • Group 3: Suspension of DSB•2NMG Form I in 0.5% carboxymethylcellulose; • Group 4: Solution of DSB•2NMG Form I in 1% ethanol/10% polyethylene glycol 400/89% water; • Group 5: Solution of DSB•2NMG Form I in 10% propylene glycol/90% water; and • Group 6: Solution of DSB•2NMG Form I in water.

A short description of series [2]: physchem. The conditions noted are these: 25 °C, organic solvent or mixture, approximate solubility.
[3] abbreviates: male rats, carboxymethylcellulose, ethanol/PEG 400/water, propylene glycol/water and water formulations.

`C=C(C)[C@@H]1CC[C@]2(C(=O)O)CC[C@]3(C)[C@H](CC[C@@H]4[C@@]5(C)CC[C@H](OC(=O)CC(C)(C)C(=O)O)C(C)(C)[C@@H]5CC[C@]43C)[C@@H]12` [DSB•2NMG Form I, 3-O-(3′,3′-dimethylsuccinyl)betulinic acid di-N-methyl-D-glucamine]: in series [1] (male rats, 10% hydroxypropyl-β-cyclodextrin solution, average, 25 mg/kg), the “area under the plasma concentration-time curve from time zero extrapolated to infinity (AUCINF)” value was 23.44 µg·h/mL. The “exposure to DSB free acid among Form I formulations” value in series [1] (male rats, 10% propylene glycol/water vehicle, FIG. 9) is on record as “greatest exposure”. In addition, the “AUCINF, times greater than from Form I given in hydroxypropyl-β-cyclodextrin” value in series [1] (setting [3]) is given as 1.5-2 times. Besides, the “DSB free acid concentrations versus Form I given in 10% hydroxypropyl-β-cyclodextrin” value in series [1] (setting [3]) is “greater”. The “plasma concentration profile compared to amorphous DSB•2NMG formulation” value in series [1] (male rats, hydroxypropyl-cyclodextrin formulation, FIG. 8) is listed as “equivalent plasma concentration profiles”. In addition, the Cmax in series [1] (Sprague-Dawley, rat, plasma, 25 mg/kg, solution in 1% ethanol/10% polyethylene glycol 400/water, average) was 8490 ng/mL; in series [1] (Sprague-Dawley, rat, plasma, 25 mg/kg, solution in 10% propylene glycol/water, average) it was 10400 ng/mL; in series [1] (Sprague-Dawley, rat, plasma, 25 mg/kg, solution in water, average) it was 9770 ng/mL; in series [1] (Sprague-Dawley, rat, plasma, 25 mg/kg, suspension in 0.5% carboxymethylcellulose, average) it was 8200 ng/mL. In addition, the solubility in series [2] (1-butanol) is under 3000 µg/mL; in series [2] (1-propanol) it was about 5000 µg/mL (≈ 8.55 mM); in series [2] (2-butanol) it was under 3000 µg/mL; in series [2] (2-propanol) it was under 3000 µg/mL; in series [2] (acetone), under 3000 µg/mL; in series [2] (dimethyl formamide) it was over 50000 µg/mL. Moreover, in series [2] (ethanol), the solubility is about 5000 µg/mL (≈ 8.55 mM).

Consider `C=C(C)[C@@H]1CC[C@]2(C(=O)O)CC[C@]3(C)[C@H](CC[C@@H]4[C@@]5(C)CC[C@H](OC(=O)CC(C)(C)C(=O)O)C(C)(C)[C@@H]5CC[C@]43C)[C@@H]12` [amorphous DSB•2NMG, 3-O-(3′,3′-dimethylsuccinyl)betulinic acid di-N-methyl-D-glucamine], for which, in series [1] (Sprague-Dawley, rat, plasma, male rats, 10% hydroxypropyl-β-cyclodextrin solution, average, read-out: area under the plasma concentration-time curve from time zero extrapolated to infinity (AUCINF)), the AUC(0-inf) was 21500 ng·h/mL.
